Measurements from ChEMBL document CHEMBL2073748, “Na(+)-dependent carnitine transport by organic cation transporter (OCTN2): its pharmacological and toxicological relevance” (J Pharmacol Exp Ther, 1999).
Non-standard residues stand in square brackets, D forms with d. Residues, ends and D or L forms follow the SMILES beside them. Sar = CNCC(=O)O

Legend:
[1] = target: T1, Organic cation/carnitine transporter 2 (Homo sapiens, UniProt O76082); assay: TP_TRANSPORTER: inhibition of Carnitine uptake (Carnitine: 0.010? uM, Gly-Sar: 500 uM) in OCTN2-expressing HEK293 cells; format: functional, cell-based; details: hek293, 500 µM
T1 sequence (O76082 whole entry): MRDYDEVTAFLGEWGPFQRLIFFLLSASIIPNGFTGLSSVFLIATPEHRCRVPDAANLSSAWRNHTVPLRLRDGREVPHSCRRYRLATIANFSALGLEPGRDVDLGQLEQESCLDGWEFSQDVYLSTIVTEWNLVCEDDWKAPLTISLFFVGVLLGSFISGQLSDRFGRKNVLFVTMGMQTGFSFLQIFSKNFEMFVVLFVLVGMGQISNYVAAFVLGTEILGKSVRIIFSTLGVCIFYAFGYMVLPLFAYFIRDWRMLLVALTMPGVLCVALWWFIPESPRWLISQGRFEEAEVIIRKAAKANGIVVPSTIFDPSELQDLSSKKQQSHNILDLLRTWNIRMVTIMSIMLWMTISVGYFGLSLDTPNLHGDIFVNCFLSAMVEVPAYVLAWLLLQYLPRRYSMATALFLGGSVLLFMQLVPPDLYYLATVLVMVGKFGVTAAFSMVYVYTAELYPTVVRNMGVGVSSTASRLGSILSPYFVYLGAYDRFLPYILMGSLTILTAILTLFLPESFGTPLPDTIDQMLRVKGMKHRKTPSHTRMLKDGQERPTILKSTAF

[2] = target: T2, OCTN2 (organic cation/carnitine transporter 2) (Homo sapiens, UniProt O76082); assay: TP_TRANSPORTER: inhibition of Carnitine uptake (Carnitine: 0.010? uM, GPFX: 500 uM) in OCTN2-expressing HEK293 cells; format: functional, cell-based; set-up: scale not given: the % may be the effect or the level left; details: HEK293 cells that express OCTN2, probe Carnitine, read-out: Activity
T2 sequence (O76082 whole entry): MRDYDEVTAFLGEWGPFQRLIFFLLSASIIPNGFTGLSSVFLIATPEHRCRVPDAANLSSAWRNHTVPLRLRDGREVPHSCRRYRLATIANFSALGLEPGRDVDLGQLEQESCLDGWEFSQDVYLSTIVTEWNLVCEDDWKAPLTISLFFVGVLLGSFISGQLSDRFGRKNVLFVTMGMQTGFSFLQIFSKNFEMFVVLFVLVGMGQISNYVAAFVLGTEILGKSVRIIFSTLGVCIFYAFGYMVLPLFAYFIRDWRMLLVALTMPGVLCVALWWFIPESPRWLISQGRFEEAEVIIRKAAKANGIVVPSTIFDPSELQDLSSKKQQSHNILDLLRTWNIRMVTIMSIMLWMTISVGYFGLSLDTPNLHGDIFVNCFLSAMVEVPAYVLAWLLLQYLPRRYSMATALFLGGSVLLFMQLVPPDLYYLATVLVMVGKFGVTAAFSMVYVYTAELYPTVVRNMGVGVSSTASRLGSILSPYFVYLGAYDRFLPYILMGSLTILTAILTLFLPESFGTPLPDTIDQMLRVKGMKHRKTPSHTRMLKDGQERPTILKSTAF

[3] = target: T1, Organic cation/carnitine transporter 2; assay: (§1) TP_TRANSPORTER: uptake in OCTN2-expressing HEK293 cells; format: functional, cell-based
[4] = target: T1, Organic cation/carnitine transporter 2; assay: TP_TRANSPORTER: inhibition of Carnitine uptake (Carnitine: 0.010? uM, Guanidine: 500 uM) in OCTN2-expressing HEK293 cells; format: functional, cell-based; details: hek293, 500 µM
[5] = target: T2, OCTN2 (organic cation/carnitine transporter 2); assay: TP_TRANSPORTER: inhibition of Carnitine uptake (Carnitine: 0.010? uM, LFLX: 500 uM) in OCTN2-expressing HEK293 cells; format: functional, cell-based; set-up: scale not given: the % may be the effect or the level left; details: HEK293 cells that express OCTN2, probe Carnitine, read-out: Activity
[6] = target: T2, OCTN2 (organic cation/carnitine transporter 2); assay: in vitro; details: HEK293 cells that express OCTN2, probe Carnitine
Description: TP_TRANSPORTER: inhibition of Carnitine uptake (Carnitine: 0.010? uM, Nicotine: 500 uM) in OCTN2-expressing HEK293 cells

[7] = target: T2, OCTN2 (organic cation/carnitine transporter 2); assay: TP_TRANSPORTER: inhibition of Carnitine uptake (Carnitine: 0.010? uM, OFLX: 500 uM) in OCTN2-expressing HEK293 cells; format: functional, cell-based; set-up: scale not given: the % may be the effect or the level left; details: HEK293 cells that express OCTN2, probe Carnitine, read-out: Activity
[8] = target: T2, OCTN2 (organic cation/carnitine transporter 2); assay: TP_TRANSPORTER: inhibition of Carnitine uptake (Carnitine: 0.010? uM, Probenecid: 500 uM) in OCTN2-expressing HEK293 cells; format: functional, cell-based; set-up: scale not given: the % may be the effect or the level left; details: HEK293 cells that express OCTN2, probe Carnitine, read-out: Activity
[9] = target: T2, OCTN2 (organic cation/carnitine transporter 2); assay: TP_TRANSPORTER: inhibition of Carnitine uptake (Carnitine: 0.010? uM, Procainamide: 500 uM) in OCTN2-expressing HEK293 cells; format: functional, cell-based; set-up: scale not given: the % may be the effect or the level left; details: HEK293 cells that express OCTN2, probe Carnitine, read-out: Activity
[10] = target: T2, OCTN2 (organic cation/carnitine transporter 2); assay: TP_TRANSPORTER: inhibition of Carnitine uptake (Carnitine: 0.010? uM, Pyrilamine: 500 uM) in OCTN2-expressing HEK293 cells; format: functional, cell-based; set-up: scale not given: the % may be the effect or the level left; details: HEK293 cells that express OCTN2, probe Carnitine, read-out: Activity
[11] = target: T2, OCTN2 (organic cation/carnitine transporter 2); assay: TP_TRANSPORTER: inhibition of Carnitine uptake (Carnitine: 0.010? uM, Quinidine: 500 uM) in OCTN2-expressing HEK293 cells; format: functional, cell-based; set-up: scale not given: the % may be the effect or the level left; details: HEK293 cells that express OCTN2, probe Carnitine, read-out: Activity
[12] = target: T2, OCTN2 (organic cation/carnitine transporter 2); assay: TP_TRANSPORTER: inhibition of Carnitine uptake (Carnitine: 0.010? uM, Quinine: 500 uM) in OCTN2-expressing HEK293 cells; format: functional, cell-based; set-up: scale not given: the % may be the effect or the level left; details: HEK293 cells that express OCTN2, probe Carnitine, read-out: Activity
[13] = target: T2, OCTN2 (organic cation/carnitine transporter 2); assay: in vitro; details: HEK293 cells that express OCTN2, probe Carnitine; remark: listed apart in the source
Description: TP_TRANSPORTER: inhibition of Carnitine uptake (Carnitine: 0.010? uM, TEA: 500 uM) in OCTN2-expressing HEK293 cells

[14] = target: T2, OCTN2 (organic cation/carnitine transporter 2); assay: TP_TRANSPORTER: inhibition of Carnitine uptake (Carnitine: 0.010? uM, Trimethyllysine: 500 uM) in OCTN2-expressing HEK293 cells; format: functional, cell-based; set-up: scale not given: the % may be the effect or the level left; details: HEK293 cells that express OCTN2, probe Carnitine, read-out: Activity
[15] = target: T2, OCTN2 (organic cation/carnitine transporter 2); assay: TP_TRANSPORTER: inhibition of Carnitine uptake (Carnitine: 0.010? uM, Valproic acid: 500 uM) in OCTN2-expressing HEK293 cells; format: functional, cell-based; set-up: scale not given: the % may be the effect or the level left; details: HEK293 cells that express OCTN2, probe Carnitine, read-out: Activity
[16] = target: T2, OCTN2 (organic cation/carnitine transporter 2); assay: TP_TRANSPORTER: inhibition of Carnitine uptake (Carnitine: 0.010? uM, Verapamil: 500 uM) in OCTN2-expressing HEK293 cells; format: functional, cell-based; set-up: scale not given: the % may be the effect or the level left; details: HEK293 cells that express OCTN2, probe Carnitine, read-out: Activity
[17] = target: T1, Organic cation/carnitine transporter 2; assay: TP_TRANSPORTER: inhibition of Carnitine uptake (Carnitine: 0.010? uM, AZT: 500 uM) in OCTN2-expressing HEK293 cells; format: functional, cell-based; details: hek293, 500 µM
[18] = substrate: CC(=O)O[C@H](CC(=O)[O-])C[N+](C)(C)C; assay: as §1; format: functional, cell-based
[19] = substrate: C[N+](C)(C)CC(O)CC(=O)[O-]; assay: TP_TRANSPORTER: uptake, D-Carnitine in OCTN2-expressing HEK293 cells; format: functional, cell-based

CN(CC(=O)O)C(=O)CN [GLYCYLSARCOSINE] (H-Gly-[Sar]-OH)
Activity [1]: is not an inhibitor [-]

Cc1c(F)c(N2CCNC(C)C2)cc2c1c(=O)c(C(=O)O)cn2C1CC1 (centres undefined) [GREPAFLOXACIN]
activity at 500 µM [2]: 68.6%

N=C(N)N [GUANIDINE]
Activity [3]: is not a substrate [-]
Activity [4]: is not an inhibitor [-]

CCn1cc(C(=O)O)c(=O)c2cc(F)c(N3CCNC(C)C3)c(F)c21 (centres undefined) [LOMEFLOXACIN]
activity at 500 µM [5]: 88.6%

CN1CCC[C@H]1c1cccnc1 [NICOTINE]
activity at 500 µM [6]: 82.6%

CC1COc2c(N3CCN(C)CC3)c(F)cc3c(=O)c(C(=O)O)cn1c23 (centres undefined) [OFLOXACIN]
activity at 500 µM [7]: 76.8%

CCCN(CCC)S(=O)(=O)c1ccc(C(=O)O)cc1 [PROBENECID]
activity at 500 µM [8]: 77.4%

CCN(CC)CCNC(=O)c1ccc(N)cc1 [PROCAINAMIDE]
activity at 500 µM [9]: 65.8%

COc1ccc(CN(CCN(C)C)c2ccccn2)cc1 [PYRILAMINE]
activity at 500 µM [10]: 38.6%
Activity [3]: substrate [+]

C=C[C@H]1C[N@@]2CC[C@H]1C[C@@H]2[C@@H](O)c1ccnc2ccc(OC)cc12 [QUINIDINE]
Activity [3]: substrate [+]
activity at 500 µM [11]: 9.1%

C=C[C@H]1C[N@@]2CC[C@H]1C[C@H]2[C@H](O)c1ccnc2ccc(OC)cc12 [QUININE]
activity at 500 µM [12]: 7.1%

CC[N+](CC)(CC)CC [TETRYLAMMONIUM]
Activity [3]: substrate [+]
activity at 500 µM [13]: 53.6%

C[N+](C)(C)CCCC[C@H](N)C(=O)O [TRIMETHYLLYSINE]
activity at 500 µM [14]: 69%

CCCC(CCC)C(=O)O [VALPROIC ACID]
Activity [3]: substrate [+]
activity at 500 µM [15]: 82.3%

COc1ccc(CCN(C)CCCC(C#N)(c2ccc(OC)c(OC)c2)C(C)C)cc1OC (centres undefined) [VERAPAMIL]
Activity [3]: substrate [+]
activity at 500 µM [16]: 2.4%

Cc1cn([C@H]2C[C@H](N=[N+]=[N-])[C@@H](CO)O2)c(=O)[nH]c1=O [ZIDOVUDINE]
Activity [17]: is not an inhibitor [-]

B1: Organic cation/carnitine transporter 2 (Homo sapiens) (protein)
chain: MRDYDEVTAFLGEWGPFQRLIFFLLSASIIPNGFTGLSSVFLIATPEHRCRVPDAANLSSAWRNHTVPLRLRDGREVPHSCRRYRLATIANFSALGLEPGRDVDLGQLEQESCLDGWEFSQDVYLSTIVTEWNLVCEDDWKAPLTISLFFVGVLLGSFISGQLSDRFGRKNVLFVTMGMQTGFSFLQIFSKNFEMFVVLFVLVGMGQISNYVAAFVLGTEILGKSVRIIFSTLGVCIFYAFGYMVLPLFAYFIRDWRMLLVALTMPGVLCVALWWFIPESPRWLISQGRFEEAEVIIRKAAKANGIVVPSTIFDPSELQDLSSKKQQSHNILDLLRTWNIRMVTIMSIMLWMTISVGYFGLSLDTPNLHGDIFVNCFLSAMVEVPAYVLAWLLLQYLPRRYSMATALFLGGSVLLFMQLVPPDLYYLATVLVMVGKFGVTAAFSMVYVYTAELYPTVVRNMGVGVSSTASRLGSILSPYFVYLGAYDRFLPYILMGSLTILTAILTLFLPESFGTPLPDTIDQMLRVKGMKHRKTPSHTRMLKDGQERPTILKSTAF
Km [18]: 8.5 µM
Km [19]: 10.9 µM
